Data set [1] deals with human erythropoietin (hEPO) mRNA. The data set is described as follows: Animal study: hEPO expression after tail vein injection of LNPs encapsulating hEPO mRNA (serum ELISA). The class given is in vivo. Conditions: hEPO level, female ICR mice, 0.5 mg/kg, 6 hours post administration; for Expression at 6 h (μg/ml): class symbols, Table 3. How it is done: Lipid nanoparticles comprising compounds 1-10 encapsulating human erythropoietin (hEPO) mRNA were systemically administered to 6-8 week old female ICR mice (Xipuer-Bikai, Shanghai) at 0.5 mg/kg dose by tail vein injection and mice blood were sampled at specific time points (e.g., 6 hours) post administration. In addition to the aforementioned tested groups, lipid nanoparticles comprising dilinoleylmethyl-4-dimethylaminobutyrate (DLin-MC3-DMA, usually abbreviated to MC3) encapsulating hEPO mRNA were similarly administered at the same dose to age and gender comparative groups of mice as a positive control.
Mice were euthanized by CO2 overdoses after the last sampling time point. Serum were separated from total blood by centrifugation at 5000 g for 10 minutes at 4° C., snap-frozen and stored at −80° C. for analysis. ELSA assay were carried out using a commercial kit (DEP00, R&D systems) according to manufacturer's instructions.
Characteristics of tested lipid nanoparticles, including hEPO expression levels (μg/ml) measured from the tested group are listed the tables below and plotted in FIG. 2.
For orientation: In an ELISA, binding on a coated surface is turned into a signal by an enzyme label.

Data set [2] can be described thus: Encapsulation efficiency of lipid nanoparticles (Quant-it Ribogreen RNA quantification assay). Conditions: LNP encapsulating hEPO mRNA. It counts as physicochemical. Here is the method:
(§1) Briefly, a cationic lipid provided herein, DSPC, cholesterol, and PEG-lipid were solubilized in ethanol at a molar ratio of 50:10:38.5:1.5, and mRNA were diluted in 10 to 50 mM citrate buffer, pH=4. The LNPs were prepared at a total lipid to mRNA weight ratio of approximately 10:1 to 30:1 by mixing the ethanolic lipid solution with the aqueous mRNA solution at a volume ratio of 1:3 using a microfluidic apparatus, total flow rate ranging from 9-30 mL/min. Ethanol were thereby removed and replaced by DPBS using dialysis. Finally, the lipid nanoparticles were filtered through a 0.2 μm sterile filter.
(§2) Lipid nanoparticle size were determined by dynamic light scattering using a Malvern Zetasizer Nano ZS (Malvern UK) using a 173° backscatter detection mode. The encapsulation efficiency of lipid nanoparticles were determined using a Quant-it Ribogreen RNA quantification assay kit (Thermo Fisher Scientific, UK) according to the manufacturer's instructions.

The nature of data set [3]: Apparent pKa of LNP formulations (TNS fluorescence assay). Conditions: LNP cationic lipid/DSPC/cholesterol/DMG-PEG 50/10/38.5/1.5 mol %.
Protocol: The apparent pKa of each formulation was determined using an assay based on fluorescence of 2-(p-toluidino)-6-napthalene sulfonic acid (TNS). LNP formulations comprising of cationic lipid/DSPC/cholesterol/DMG-PEG (50/10/38.5/1.5 mol %) in PBS were prepared as described above. TNS was prepared as a 300 uM stock solution in distilled water. LNP formulations were diluted to 0.1 mg/ml total lipid in 3 mL of buffered solutions containing 50 mM sodium citrate, 50 mM sodium phosphate, 50 mM sodium borate, and 30 mM sodium chloride where the pH ranged from 3 to 9. An aliquot of the TNS solution was added to give a final concentration of 0.1 mg/ml and following vortex mixing fluorescence intensity was measured at room temperature in a Molecular Devices Spectramax iD3 spectrometer using excitation and mission wavelengths of 325 nm and 435 nm. A sigmoidal best fit analysis was applied to the fluorescence data and the pKa value was measured as the pH giving rise to half-maximal fluorescent intensity.
Data set [4] can be described thus: Lipid nanoparticle size by dynamic light scattering (Malvern Zetasizer Nano ZS). It counts as physicochemical. Conditions: LNP: cationic lipid/DSPC/cholesterol/PEG-lipid 50:10:38.5:1.5, hEPO mRNA. How it is done: as §1, §2

Take `CCCCCCCCC(CCCCCC)COC(=O)CCCCCN(CCCCCC(=O)OCC(CCCCCC)CCCCCCCC)CCN(CCO)C1CCC1` (stereo not drawn) [Compound 35]: the “Expression at 6 h (μg/ml)” value in data set [1] is “C (≥0.1 and <1)”. For the same molecule, in data set [2] (Table 3), the “Encapsulation Efficiency” value is listed as 94.8%. In data set [3] (Table 3), the “Apparant Pka” value is given as 5.945. For the same molecule, in data set [4] (Table 3), the polydispersity was found to be 0.086 and the size nm amounted to 60.58 nm.

`CCCCCCCCC(CCCCCC)COC(=O)CCCCCN(CCCCCC(=O)OCC(CCCCCC)CCCCCCCC)CCN(CCO)C1CCCC1` (stereo not drawn) [Compound 5]: the “Expression at 6 h” value in data set [1] (Table 2) was determined as 0.25 µg/mL. The “Encapsulation Efficiency” value in data set [2] (Table 2) is recorded as 96.2%. In data set [3] (Table 2), the “Apparant Pka” value stood at 6.24. In data set [4] (Table 2), the polydispersity turned out to be 0.029 and the “size nm” value was determined as 54.0 nm.

As for `CCCCC/C=C\CCCC(=O)C(CC/C=C\CCCCC)C(CCC/C=C\CCCCC)OC(=O)CCCCCN(CCCCCC(=O)OCCC/C=C/CCCCC)CCN(CCO)C1CCC1` (stereo not drawn) [Compound 101], in data set [1], the “Expression at 6 h (μg/ml)” value is “B (≥1 and <2)”. Further, the “Encapsulation Efficiency” value in data set [2] (Table 3) is 85.5%. For the same molecule, the “Apparant Pka” value in data set [3] (Table 3) is on record as 6.071. In data set [4] (Table 3), the polydispersity was 0.067 and the size nm came out at 72 nm.

`CCCCCCCCC(CCCCCC)COC(=O)CCCCCN(CCCCCC(=O)OCC(CCCCCC)CCCCCCCC)CCN1CCC(O)CC1` (stereo not drawn) [Compound 96]: in data set [1], the “Expression at 6 h (μg/ml)” value was “D (<0.1)”. In data set [2] (Table 3), the “Encapsulation Efficiency” value is listed as 96.9%. In data set [4] (Table 3), this molecule registered a polydispersity of 0.101 and a size nm of 85.98 nm.

As for `CCCCCCCCC(CCCCCC)CNC(=O)NCCCCN(CCCCNC(=O)NCC(CCCCCC)CCCCCCCC)CCN(CCO)C1CCC1` (stereo not drawn) [Compound 121], the “Expression at 6 h (μg/ml)” value in data set [1] was “B (≥1 and <2)”. The “Encapsulation Efficiency” value in data set [2] (Table 3) is reported as 94.5%. In data set [4] (Table 3), this molecule came in with a polydispersity of 0.134 and a size nm of 71.02 nm.

With `CCCCCCCCC(CCCCCC)COC(=O)CCCCCN(CCCCCC(=O)OCC(CCCCCC)CCCCCCCC)CCN(C1CCCCC1)C1CCC(O)CC1` (stereo not drawn) [Compound 99], the “Expression at 6 h (μg/ml)” value in data set [1] is “C (≥0.1 and <1)”. For the same molecule, the “Encapsulation Efficiency” value in data set [2] (Table 3) turned out to be 100.2%. In data set [4] (Table 3), the polydispersity turned out to be 0.1 and the size nm worked out at 66.06 nm.

In the case of `CCCCCCCCC(CCCCCCCC)COC(=O)COCCOCCN(CCOCCOCC(=O)OCC(CCCCCCCC)CCCCCCCC)CCN(CCO)C1CCC1` [Compound 103], in data set [1], the “Expression at 6 h (μg/ml)” value is “C (≥0.1 and <1)”. Further, the “Encapsulation Efficiency” value in data set [2] (Table 3) turned out to be 94.41%. In data set [4] (Table 3), this molecule returned a polydispersity of 0.054 and a size nm of 67.57 nm.

Turning to `CCCCCCCCC(CCCCCC)COC(=O)CCCCCN(CCCCCC(=O)OCC(CCCCCC)CCCCCCCC)CCN(CCO)C1CCN(C)CC1` (stereo not drawn) [Compound 94], the “Expression at 6 h (μg/ml)” value in data set [1] was “D (<0.1)”. Also, the “Encapsulation Efficiency” value in data set [2] (Table 3) is 100.3%. Moreover, in data set [4] (Table 3), the polydispersity worked out at 0.298 and the size nm stood at 67.01 nm.

Consider `CCCCCCCCC(CCCCCCCC)COC(=O)CCCCCN(CCCCCC(=O)OCC(CCCCCCCC)CCCCCCCC)CCN(CCO)C1CC(c2ccccc2)C1` (stereo not drawn) [Compound 76], for which, in data set [1], the “Expression at 6 h (μg/ml)” value is “C (≥0.1 and <1)”. Further, in data set [2] (Table 3), the “Encapsulation Efficiency” value is listed as 91.71%. In data set [4] (Table 3), this molecule returned a polydispersity of 0.096 and a size nm of 54.94 nm.

On to `CCCCCCCCC(CCCCCC)C(=O)OCCCCCCN(CCCCCCOC(=O)C(CCCCCC)CCCCCCCC)CCN(CCO)C1CCC1` (stereo not drawn) [Compound 45], for which the “Expression at 6 h (μg/ml)” value in data set [1] is listed as “A (≥2)”. In data set [2] (Table 3), the “Encapsulation Efficiency” value is reported as 96.6%. In data set [4] (Table 3), this molecule had a polydispersity of 0.032 and a size nm of 71.47 nm.

`CCCCCCCCC(CCCCCC)COC(=O)CCCCCN(CCCCCC(=O)OCC(CCCCCC)CCCCCCCC)CCN(CCCCC)C1CCC(O)CC1` (stereo not drawn) [Compound 61]: in data set [1], the “Expression at 6 h (μg/ml)” value is “A (≥2)”. Further, the “Encapsulation Efficiency” value in data set [2] (Table 3) came out at 83.4%. In data set [4] (Table 3), the polydispersity amounted to 0.087 and the size nm worked out at 65.04 nm.

In the case of `CCCCCCCCC(CCCCCC)CC(=O)NCCCCCN(CCCCCOC(=O)CC(CCCCCC)CCCCCCCC)CCN(CCO)C1CCCCCC1` (stereo not drawn) [Compound 132], the “Expression at 6 h (μg/ml)” value in data set [1] was “A (≥2)”. Further, in data set [2] (Table 3), the “Encapsulation Efficiency” value was found to be 88.00%. In data set [4] (Table 3), this molecule had a polydispersity of 0.129 and a size nm of 70.33 nm.

As for `CCCCCCCCC(CCCCCC)CNC(=O)CCCCCN(CCCCCC(=O)OCC(CCCCCC)CCCCCCCC)CCN(CCO)C1CCCCC1` (stereo not drawn) [Compound 127], the “Expression at 6 h (μg/ml)” value in data set [1] is on record as “A (≥2)”. Further, the “Encapsulation Efficiency” value in data set [2] (Table 3) came out at 98.70%. In data set [4] (Table 3), this molecule registered a polydispersity of 0.111 and a size nm of 77.12 nm.

Turning to `CCCCCCCCC(CCCCCC)CNC(=O)CCCCCN(CCCCCC(=O)OCC(CCCCCC)CCCCCCCC)CCN(CCO)C1CCCC1` (stereo not drawn) [Compound 126], the “Expression at 6 h (μg/ml)” value in data set [1] was “A (≥2)”. Further, in data set [2] (Table 3), the “Encapsulation Efficiency” value was 100.10%. In data set [4] (Table 3), this molecule gave a polydispersity of 0.101 and a size nm of 78.17 nm.

With `CCCCCCCCC(CCCCCCCC)CNC(=O)CCCCCN(CCCCCC(=O)OCC(CCCCCCCC)CCCCCCCC)CCN(CCO)C1CCCC1` [Compound 136], the “Expression at 6 h (μg/ml)” value in data set [1] is “A (≥2)”. Also, the “Encapsulation Efficiency” value in data set [2] (Table 3) stood at 94.29%. In data set [4] (Table 3), this molecule had a polydispersity of 0.063 and a size nm of 61.17 nm.

Regarding `CCCCCCCCC(CCCCCCCC)COC(=O)CCCCCN(CCCCCC(=O)OCC(CCCCCCCC)CCCCCCCC)CCN(CCO)C1CCC(F)(F)CC1` [Compound 78], the “Expression at 6 h (μg/ml)” value in data set [1] is “C (≥0.1 and <1)”. Besides, the “Encapsulation Efficiency” value in data set [2] (Table 3) is 92.4%. In data set [4] (Table 3), this molecule had a polydispersity of 0.091 and a size nm of 44.47 nm.

Regarding `CCCCCCCCC(CCCCCC)COC(=O)CCCCCN(CCCCCC(=O)OCC(CCCCCC)CCCCCCCC)CCN(CCCCCCO)C1CCC1` (stereo not drawn) [Compound 30], in data set [1], the “Expression at 6 h (μg/ml)” value is “B (≥1 and <2)”. Further, the “Encapsulation Efficiency” value in data set [2] (Table 3) was 95.9%. In data set [4] (Table 3), this molecule showed a polydispersity of 0.071 and a size nm of 80.46 nm.

For the molecule `CCCCCCCCC(CCCCCC)CC(=O)COCCCCN(CCCCCOC(=O)CC(CCCCCC)CCCCCCCC)CCN(CCO)C1CCCCC1` (stereo not drawn) [Compound 26], in data set [1], the “Expression at 6 h (μg/ml)” value is “C (≥0.1 and <1)”. Besides, in data set [2] (Table 3), the “Encapsulation Efficiency” value was 96.7%. In data set [4] (Table 3), this molecule returned a polydispersity of 0.125 and a size nm of 55.51 nm.

Turning to `CCCCCCCCC(CCCCCC)CNC(=O)CCCCCN(CCCCCC(=O)OCC(CCCCCC)CCCCCCCC)CCN(CCO)C1CCCCCC1` (stereo not drawn) [Compound 128], in data set [1], the “Expression at 6 h (μg/ml)” value is reported as “A (≥2)”. The “Encapsulation Efficiency” value in data set [2] (Table 3) is given as 86.10%. Also, in data set [4] (Table 3), the polydispersity worked out at 0.107 and the size nm turned out to be 79.73 nm.

Regarding `CCCCCCCCC(CCCCCC)CNC(=O)CCCCCN(CCCCCC(=O)OCC(CCCCCC)CCCCCCCC)CCN(CCO)C1CCC1` (stereo not drawn) [Compound 106], the “Expression at 6 h (μg/ml)” value in data set [1] was “A (≥2)”. Moreover, the “Encapsulation Efficiency” value in data set [2] (Table 3) was 95.14%. In data set [4] (Table 3), the polydispersity is listed as 0.174 and the size nm was found to be 76.97 nm.

As for `CCCCCCCCC(CCCCCCCC)COC(=O)CCCCCN(CCCCCC(=O)OCC(CCCCCCCC)CCCCCCCC)CCN(CCCCCC)C1CCC(O)CC1` (stereo not drawn) [Compound 75], the “Expression at 6 h (μg/ml)” value in data set [1] is “A (≥2)”. The “Encapsulation Efficiency” value in data set [2] (Table 3) is listed as 94.1%. In data set [4] (Table 3), the polydispersity was determined as 0.032 and the size nm turned out to be 62.36 nm.

(Values after patent US11472766B2, “Lipid nanoparticle composition” (Suzhou Abogen Biosciences Co., Ltd., priority 2020, dated 2022).)
